Assay results published in US11154060B2, “Microbiocidal oxadiazole derivatives” (SYNGENTA PARTICIPATIONS AG, priority 2016, dated 2021).

Experiments:
[1] = test system: Glomerella lagenarium (Colletotrichum lagenarium); assay: Glomerella lagenarium (Colletotrichum lagenarium) liquid culture / cucumber / preventative (anthracnose); type: cell-based; settings: Colletotrichum orbiculare, liquid culture in PDB, 24° C., 3-4 days after application, read-out: control of Glomerella lagenarium compared to untreated control (inhibition of growth, photometric)
Outline: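 Conidia from cryogenic storage mixed into potato dextrose broth and added to compound diluted from DMSO stock with 0.025% Tween20. Incubated at 24 °C; growth inhibition read photometrically 3–4 days after application, as percent antifungal activity versus untreated check.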

[2] = test system: Puccinia recondita f. sp. tritici; assay: Puccinia recondita f. sp. tritici / wheat / leaf disc curative (brown rust); type: in vivo; settings: foliar, wheat leaf segments cv. Kanzler, applied 1 day after inoculation, assessed 6-8 days after application, read-out: control of Puccinia recondita f. sp. tritici compared to untreated control
Outline: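 Wheat cv. Kanzler leaf segments on agar, inoculated with brown rust spores and kept dark at 19 °C, 75% rh; formulated compound sprayed 1 day after inoculation (curative). Incubated 19 °C, 75% rh, 12 h light/dark; percent disease control vs untreated scored 6–8 days after application.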

Uromyces viciae-fabae = Uromyces viciae-fabae / field bean / leaf disc preventative (faba-bean rust); type: in vivo; settings: foliar, 288 h, 100 ppm in the applied formulation, field bean leaf discs, inoculated two hours after application, 12 days after application, read-out: disease control compared to untreated control leaf discs
Outline: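 Preventative test: field bean leaf discs on water agar received compound in acetone with spreader, then were spray-inoculated with rust spores on the lower surface 2 h later. Discs were kept at 22 °C, 18 h day, 70% RH, with percent disease control versus untreated assessed 12 days after application.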

Phakopsora pachyrhizi = Phakopsora pachyrhizi / soybean / leaf disc preventative (Asian soybean rust); type: in vivo; settings: foliar, soybean leaf disks, inoculated one day after application, assessed 12-14 days after application, read-out: control of Phakopsora pachyrhizi compared to untreated control
Outline: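 Soybean leaf discs on water agar sprayed with formulated compound diluted in water; spore suspension sprayed on lower surface 1 day later. Kept 24-36 h dark at 20° C, 75% rh, then 12 h light/12 h dark. Percent disease control versus untreated scored 12-14 days after application.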

[3] = test system: Puccinia recondita f. sp. tritici; assay: Puccinia recondita f. sp. tritici / wheat / leaf disc preventative (brown rust); type: in vivo; settings: foliar, wheat leaf segments cv. Kanzler, inoculated 1 day after application, assessed 7-9 days after application, read-out: control of Puccinia recondita f. sp. tritici compared to untreated control
Outline: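 Wheat leaf segments (cv. Kanzler) on water agar sprayed with compound diluted from DMSO stock in water/0.025% Tween20, then inoculated with P. recondita spores 1 day later. Incubated at 19 °C, 75% rh, 12 h light/dark. Percent disease control versus untreated assessed 7-9 days after application.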

Row | Structure (SMILES) | melting point [°C] | inhibition at 20 ppm [1] [%] | pest or weed control at 200 ppm [2] [%] | pest or weed control at 100 ppm (Uromyces viciae-fabae) [%] | pest or weed control at 200 ppm (Phakopsora pachyrhizi) [%] | pest or weed control at 200 ppm [3] [%]
1 | CONC(=O)c1ccc(-c2noc(C(F)(F)F)n2)cc1F [Compound 1.1, 2-fluoro-N-methoxy-4-[5-(trifluoromethyl)-1,2,4-oxadiazol-3-yl]benzamide] | 122 to 125 | ≥ 80 | ≥ 80 | ≥ 80 | ≥ 80 | ≥ 80
2 | CON(C(=O)c1ccc(-c2noc(C(F)(F)F)n2)cc1F)C(C)Cc1c(Cl)cc(Cl)cc1Cl (centres unmarked) [Compound 1.4, 2-fluoro-N-methoxy-N-[1-methyl-2-(2,4,6-trichlorophenyl)ethyl]-4-[5-(trifluoromethyl)-1,2,4-oxadiazol-3-yl]benzamide] | 83.5 to 86.2 | – | – | ≥ 80 | – | –
3 | CC(CC#N)ONC(=O)c1ccc(-c2noc(C(F)(F)F)n2)cc1F (centres unmarked) [Compound 1.11, N-(2-cyano-1-methyl-ethoxy)-2-fluoro-4-[5-(trifluoromethyl)-1,2,4-oxadiazol-3-yl]benzamide] | 85.8 to 88 | ≥ 80 | ≥ 80 | ≥ 80 | ≥ 80 | ≥ 80
4 | O=C(NOCc1ccccc1)c1ccc(-c2noc(C(F)(F)F)n2)c(F)c1 [Compound 1.16, N-benzyloxy-3-fluoro-4-[5-(trifluoromethyl)-1,2,4-oxadiazol-3-yl]benzamide] | 178 to 181 | ≥ 80 | ≥ 80 | – | ≥ 80 | ≥ 80
5 | CONC(=O)Cc1ccc(-c2noc(C(F)(F)F)n2)c(F)c1 [Compound 1.17, 2-[3-fluoro-4-[5-(trifluoromethyl)-1,2,4-oxadiazol-3-yl]phenyl]-N-methoxy-acetamide] | 131 to 133 | ≥ 80 | ≥ 80 | – | ≥ 80 | ≥ 80
6 | CON(C)C(=O)Cc1ccc(-c2noc(C(F)(F)F)n2)cc1F [Compound 1.19, 2-[2-fluoro-4-[5-(trifluoromethyl)-1,2,4-oxadiazol-3-yl]phenyl]-N-methoxy-N-methyl-acetamide] | 104 to 106 | ≥ 80 | ≥ 80 | – | ≥ 80 | ≥ 80
7 | CCONC(=O)Cc1ccc(-c2noc(C(F)(F)F)n2)c(F)c1 [Compound 1.22, N-ethoxy-2-[3-fluoro-4-[5-(trifluoromethyl)-1,2,4-oxadiazol-3-yl]phenyl]acetamide] | 150 to 152 | ≥ 80 | ≥ 80 | – | ≥ 80 | ≥ 80
8 | O=C(c1ccc(-c2noc(C(F)(F)F)n2)cc1F)N1CCCO1 [Compound 1.26, [2-fluoro-4-[5-(trifluoromethyl)-1,2,4-oxadiazol-3-yl]phenyl]-isoxazolidin-2-yl-methanone] | 60.3 to 62.4 | ≥ 80 | ≥ 80 | ≥ 80 | – | ≥ 80
9 | O=C(c1ccc(-c2noc(C(F)(F)F)n2)cc1F)N1CCCCO1 [Compound 1.27, [2-fluoro-4-[5-(trifluoromethyl)-1,2,4-oxadiazol-3-yl]phenyl]-(oxazinan-2-yl)methanone] | 57.3 to 59.4 | ≥ 80 | ≥ 80 | ≥ 80 | ≥ 80 | ≥ 80

Continued, in another order:

Row | melting point [°C] | Structure (SMILES) | inhibition at 20 ppm [1] [%] | pest or weed control at 200 ppm [2] [%] | pest or weed control at 100 ppm (Uromyces viciae-fabae) [%] | pest or weed control at 200 ppm (Phakopsora pachyrhizi) [%] | pest or weed control at 200 ppm [3] [%]
10 | 167 to 169 | C#CCONC(=O)c1ccc(-c2noc(C(F)(F)F)n2)cc1 [Compound 2.11, N-prop-2-ynoxy-4-[5-(trifluoromethyl)-1,2,4-oxadiazol-3-yl]benzamide] | ≥ 80 | ≥ 80 | ≥ 80 | ≥ 80 | ≥ 80
11 | 134 to 135 | C=CCONC(=O)c1ccc(-c2noc(C(F)(F)F)n2)cc1 [Compound 2.12, N-allyloxy-4-[5-(trifluoromethyl)-1,2,4-oxadiazol-3-yl]benzamide] | ≥ 80 | ≥ 80 | ≥ 80 | ≥ 80 | ≥ 80
12 | 131 to 138 | CONC(=O)Cc1ccc(-c2noc(C(F)(F)F)n2)cc1 [Compound 2.13, N-methoxy-2-[4-[5-(trifluoromethyl)-1,2,4-oxadiazol-3-yl]phenyl]acetamide] | ≥ 80 | ≥ 80 | – | ≥ 80 | ≥ 80
13 | 171 to 183 | CCONC(=O)Cc1ccc(-c2noc(C(F)(F)F)n2)cc1 [Compound 2.16, N-ethoxy-2-[4-[5-(trifluoromethyl)-1,2,4-oxadiazol-3-yl]phenyl]acetamide] | ≥ 80 | ≥ 80 | – | ≥ 80 | ≥ 80
14 | 140 to 146 | O=C(Cc1ccc(-c2noc(C(F)(F)F)n2)cc1)NOCC(F)F [Compound 2.17, N-(2,2-difluoroethoxy)-2-[4-[5-(trifluoromethyl)-1,2,4-oxadiazol-3-yl]phenyl]acetamide] | ≥ 80 | ≥ 80 | – | ≥ 80 | ≥ 80
15 | 89 | O=C(c1ccc(-c2noc(C(F)(F)F)n2)cc1)N1OC2C=CC1CC2 (centres unmarked) [Compound 2.23, 2-oxa-3-azabicyclo[2.2.2]oct-5-en-3-yl-[4-[5-(trifluoromethyl)-1,2,4-oxadiazol-3-yl]phenyl]methanone] | ≥ 80 | ≥ 80 | ≥ 80 | ≥ 80 | ≥ 80
16 | 120 to 121 | O=C(c1ccc(-c2noc(C(F)(F)F)n2)cc1)N1OC2CCC1CC2 [Compound 2.24, 2-oxa-3-azabicyclo[2.2.2]octan-3-yl-[4-[5-(trifluoromethyl)-1,2,4-oxadiazol-3-yl]phenyl]methanone] | ≥ 80 | ≥ 80 | ≥ 80 | ≥ 80 | –
